Measured values reported in patent US12479843B2, “Spiro ring-containing quinazoline compounds” (WIGEN BIOMEDICINE TECHNOLOGY (SHANGHAI) CO., LTD., priority 2019, dated 2025).

How the values were obtained:
pERK level in H358 cells = assay: pERK and ERK protein content assay in H358 cells (ELISA); format: cell-based; conditions: Homo sapiens, NCI-H358, compound 1 μM, 24 h, pERK/ERK ratio compared with DMSO group, read-out: Inhibition rate (%) of pERK level
Experimental: H358 cells were seeded in a 24-well plate. After one day of growth, a test compound (at a concentration of 1 μM) was added. After 24 h of action of the compound, the cells were lysed, and the cell lysate was transferred to a 96-well ELISA plate. The levels of pERK and ERK in the lysate were measured using an ELISA kit (abcam 176660). The ratio of pERK to ERK was calculated and compared with that of the DMSO group, and the percentage of inhibition of pERK activity by the compound was calculated.

H358 cells = assay: Antiproliferative activity against H358 cells (Cell Titer Glow, ultra-low attachment plate); format: cell-based; conditions: Homo sapiens, NCI-H358, 72 h, 96-well ultra-low attachment plate, three days after addition of compound, Cell Titer Glow
Experimental: 2500 H358 cells were seeded in a 96-well ultra-low attachment plate (corning, 7007). After one day of growth, a serially diluted compound (a maximum concentration of 5 μM, 5-fold dilution, a total of five doses) was added. Three days after the addition of the compound, Cell Titer Glow (Promega, G9681) was added to evaluate pellet growth, and the IC50 value was calculated.

| Compound | IC50 (H358 cells) [nM] | inhibition at 1 µM (pERK level in H358 cells) [%] |
| --- | --- | --- |
| C=CC(=O)N1CC2(CCN(c3nc(N4CC5(CCN(C)C5)C4)nc4c(OCC(F)(F)F)c(-c5c(C)ccc6[nH]ncc56)c(C5CC5)cc34)CC2)C1 [Compound 73] | < 300 | > 90 |
| C=CC(=O)N1CC2(CCN(c3nc(N4CC5(CCN(CC(C)CC)CC5)C4)nc4c(OCC(F)(F)F)c(-c5c(C)ccc6[nH]ncc56)c(C5CC5)cc34)CC2)C1 (centres unmarked) [Compound 81] | < 300 | > 90 |
| C=CC(=O)N1CC2(CCN(c3nc(OC4CN5CCC4CC5)nc4c(OCC(F)(F)F)c(-c5c(C)ccc6[nH]ncc56)c(C5CC5)cc34)CC2)C1 (centres unmarked) [Compound 150] | < 300 | > 90 |
| C=CC(=O)N1CC2(CCN(c3nc(OC[C@@H]4COCCN4CCOC)nc4c(OCC(F)(F)F)c(-c5c(C)ccc6[nH]ncc56)c(C5CC5)cc34)CC2)C1 [Compound 117] | < 300 | > 90 |
| C=C(F)C(=O)N1CC2(CCN(c3nc(N4CCC5(CCN(CCOC)CC5)CC4)nc4c(OCC(F)(F)F)c(-c5c(C)ccc6[nH]ncc56)c(C5CC5)cc34)CC2)C1 [Compound 108] | 300 to 1000 | 50 to 90 |
| C=C(F)C(=O)N1CC2(CCN(c3nc(O[C@H]4CCN(CCOC)C4)nc4c(OCC(F)(F)F)c(-c5c(C)ccc6[nH]ncc56)c(C5CC5)cc34)CC2)C1 [Compound 65] | < 300 | > 90 |
| C=C(F)C(=O)N1CC2(CCN(c3nc(N4CC5(CN(CCOC)C5)C4)nc4c(OCC(F)(F)F)c(-c5c(C)ccc6[nH]ncc56)c(C5CC5)cc34)CC2)C1 [Compound 72] | < 300 | > 90 |
| C=C(F)C(=O)N1CC2(CCN(c3nc(N4CC5(CCN(CC(C)CC)CC5)C4)nc4c(OCC(F)(F)F)c(-c5c(C)ccc6[nH]ncc56)c(C5CC5)cc34)CC2)C1 (centres unmarked) [Compound 82] | < 300 | > 90 |
| C=C(F)C(=O)N1CC2(CCN(c3nc(N4CCC5(CN(C)C5)C4)nc4c(OCC(F)(F)F)c(-c5c(C)ccc6[nH]ncc56)c(C5CC5)cc34)CC2)C1 [Compound 98] | 300 to 1000 | 50 to 90 |
| C=C(F)C(=O)N1CC2(CCN(c3nc(N4CC5(CN(C)C5)C4)nc4c(OCC(F)(F)F)c(-c5c(C)ccc6[nH]ncc56)c(C5CC5)cc34)CC2)C1 [Compound 70] | 300 to 1000 | > 90 |
| C=CC(=O)N1CC2(CCN(c3nc(OC4CCN(CCOC)CC4)nc4c(OCC(F)(F)F)c(-c5c(F)ccc6[nH]cnc56)c(C5CC5)cc34)CC2)C1 [Compound 37] | 300 to 1000 | 50 to 90 |
| C=C(F)C(=O)N1CC2(CCN(c3nc(N4CC5(CCN(CCC#N)CC5)C4)nc4c(OCC(F)(F)F)c(-c5c(C)ccc6[nH]ncc56)c(C5CC5)cc34)CC2)C1 [Compound 88] | 300 to 1000 | 50 to 90 |
| C=C(F)C(=O)N1CC2(CCN(c3nc(OC4CN(C5COC5)C4)nc4c(OCC(F)(F)F)c(-c5c(C)ccc6[nH]ncc56)c(C5CC5)cc34)CC2)C1 [Compound 112] | 300 to 1000 | 50 to 90 |
| C=C(F)C(=O)N1CC2(CCN(c3nc(O[C@H]4CCN(C5COC5)C4)nc4c(OCC(F)(F)F)c(-c5c(C)ccc6[nH]ncc56)c(C5CC5)cc34)CC2)C1 [Compound 66] | 300 to 1000 | 50 to 90 |
| C=CC(=O)N1CC2(CCN(c3nc(OC4CC5(CCN(C6COC6)CC5)C4)nc4c(OCC(F)(F)F)c(-c5c(C)ccc6[nH]ncc56)c(C5CC5)cc34)CC2)C1 [Compound 133] | < 300 | > 90 |
| C=CC(=O)N1CC2(CCN(c3nc(N4CC(N5C6CCC5CC6)C4)nc4c(OCC(F)(F)F)c(-c5c(C)c(C)cc6[nH]ncc56)c(C5CC5)cc34)CC2)C1 [Compound 326] | < 300 | > 90 |
| C=CC(=O)N1CC2(CCN(c3nc(OC4CCC5(CC4)CN(CCOC)C5)nc4c(OCC(F)(F)F)c(-c5c(C)ccc6[nH]ncc56)c(C5CC5)cc34)CC2)C1 [Compound 137] | < 300 | > 90 |

The next lines start with results.

| IC50 (H358 cells) [nM] | Compound | inhibition at 1 µM (pERK level in H358 cells) [%] |
| --- | --- | --- |
| < 300 | C=CC(=O)N1CC2(CCN(c3nc(N4CC(N5C[C@H](F)[C@H](OC)C5)C4)nc4c(OCC(F)(F)F)c(-c5c(C)ccc6[nH]ncc56)c(C5CC5)cc34)CC2)C1 [Compound 264] | > 90 |
| 300 to 1000 | C=CC(=O)N1CC2(CCN(c3nc(N4CC[C@H](N5CCC(OC)CC5)C4)nc4c(OCC(F)(F)F)c(-c5c(C)ccc6[nH]ncc56)c(C5CC5)cc34)CC2)C1 [Compound 213] | 50 to 90 |
| < 300 | C=CC(=O)N1CC2(CCN(c3nc(N4CC5(C4)[C@H](N(C)C)CCN5C)nc4c(OCC(F)(F)F)c(-c5c(C)ccc6[nH]ncc56)c(C5CC5)cc34)CC2)C1 [Compound 278] | > 90 |
| < 300 | C=C(F)C(=O)N1CC2(CCN(c3nc(OC4CCC5(CC4)CN(CCOC)C5)nc4c(OCC(F)(F)F)c(-c5c(C)ccc6[nH]ncc56)c(C5CC5)cc34)CC2)C1 [Compound 138] | > 90 |
| < 300 | C=CC(=O)N1CC2(CCN(c3nc(N4CC(N5CCCC5)C4)nc4c(OCC(F)(F)F)c(-c5c(C)c(C)cc6[nH]ncc56)c(C=C)cc34)CC2)C1 [Compound 222] | > 90 |
| < 300 | C=CC(=O)N1CC2(CCN(c3nc(N(C)CCN4CCC4)nc4c(OCC(F)(F)F)c(-c5c(C)ccc6[nH]ncc56)c(C5CC5)cc34)CC2)C1 [Compound 226] | > 90 |
| < 300 | C=CC(=O)N1CC2(CCN(c3nc(N4CC[C@@H](N5CCOCC5)C4)nc4c(OCC(F)(F)F)c(-c5c(C)ccc6[nH]ncc56)c(C5CC5)cc34)CC2)C1 [Compound 210] | > 90 |
| < 300 | C=CC(=O)N1CC2(CCN(c3nc(N4CC[C@@H](N5CCCCC5)C4)nc4c(OCC(F)(F)F)c(-c5c(C)ccc6[nH]ncc56)c(C5CC5)cc34)CC2)C1 [Compound 208] | > 90 |
| < 300 | C=CC(=O)N1CC2(CCN(c3nc(N4CC5(C4)[C@@H](F)CCN5C)nc4c(OCC(F)(F)F)c(-c5c(C)ccc6[nH]ncc56)c(C5CC5)cc34)CC2)C1 [Compound 273] | > 90 |
| < 300 | C=CC(=O)N1CC2(CCN(c3nc(N4CC5(CC(N6CCC[C@H]6C)C5)C4)nc4c(OCC(F)(F)F)c(-c5c(C)ccc6[nH]ncc56)c(C5CC5)cc34)CC2)C1 [Compound 291] | > 90 |
| < 300 | C=CC(=O)N1CC2(CCN(c3nc(N4CC(N5C[C@@H](C)[C@@H](OC)C5)C4)nc4c(OCC(F)(F)F)c(-c5c(C)ccc6[nH]ncc56)c(C5CC5)cc34)CC2)C1 [Compound 266] | > 90 |
| < 300 | C=CC(=O)N1CC2(CCN(c3nc(N4CC[C@@H](N(C)C)C4)nc4c(OCC(F)(F)F)c(-c5c(C)ccc6[nH]ncc56)c(C5CC5)cc34)CC2)C1 [Compound 186] | > 90 |
| < 300 | C=CC(=O)N1CC2(CCN(c3nc(N4CC[C@H](N5CC[C@@H](OC)C5)C4)nc4c(OCC(F)(F)F)c(-c5c(C)ccc6[nH]ncc56)c(C5CC5)cc34)CC2)C1 [Compound 197] | > 90 |
| 300 to 1000 | C=CC(=O)N1CC2(CCN(c3nc(N4CC(N5CC(OCC(F)(F)F)C5)C4)nc4c(OCC(F)(F)F)c(-c5c(C)ccc6[nH]ncc56)c(C5CC5)cc34)CC2)C1 [Compound 239] | 50 to 90 |
| 300 to 1000 | C=CC(=O)N1CC2(CCN(c3nc(N4CC(N5CC[C@H](C#N)C5)C4)nc4c(OCC(F)(F)F)c(-c5c(C)ccc6[nH]ncc56)c(C5CC5)cc34)CC2)C1 [Compound 257] | > 90 |
| < 300 | C=CC(=O)N1CC2(CCN(c3nc(N4CC(N5CCCC5)C4)nc4c(OCC(F)(F)F)c(-c5c(C)c(F)cc6[nH]ncc56)c(C5CC5)cc34)CC2)C1 [Compound 220] | > 90 |
| < 300 | C=CC(=O)N1CC2(CCN(c3nc(N4CC(N5CCC5)C4)nc4c(OCC(F)(F)F)c(-c5c(C)c(C)cc6[nH]ncc56)c(C5CC5)cc34)CC2)C1 [Compound 217] | > 90 |
| < 300 | C=CC(=O)N1CC2(CCN(c3nc(N4CC[C@H](N5CCC5)C4)nc4c(OCC(F)(F)F)c(-c5c(C)ccc6[nH]ncc56)c(C5CC5)cc34)CC2)C1 [Compound 181] | > 90 |
| 300 to 1000 | C=CC(=O)N1CC2(CCN(c3nc(N4CC(N(C)CC(F)(F)F)C4)nc4c(OCC(F)(F)F)c(-c5c(C)ccc6[nH]ncc56)c(C5CC5)cc34)CC2)C1 [Compound 167] | > 90 |
| < 300 | C=CC(=O)N1CC2(CCN(c3nc(N(C)CCN4CC[C@H](F)C4)nc4c(OCC(F)(F)F)c(-c5c(C)ccc6[nH]ncc56)c(C5CC5)cc34)CC2)C1 [Compound 236] | > 90 |
| < 300 | C=CC(=O)N1CC2(CCN(c3nc(N4CCC5(CCN(C)CC5)CC4)nc4c(OCC(F)(F)F)c(-c5c(C)ccc6[nH]ncc56)c(C5CC5)cc34)CC2)C1 [Compound 164] | > 90 |
| < 300 | C=CC(=O)N1CC2(CCN(c3nc(N4CC5(CCOCC5)C4)nc4c(OCC(F)(F)F)c(-c5c(C)ccc6[nH]ncc56)c(C5CC5)cc34)CC2)C1 [Compound 156] | > 90 |
| 300 to 1000 | C=CC(=O)N1CC2(CCN(c3nc(N4CC[C@@H](N5CC(OC)C5)C4)nc4c(OCC(F)(F)F)c(-c5c(C)ccc6[nH]ncc56)c(C5CC5)cc34)CC2)C1 [Compound 204] | > 90 |
